Experimental data taken from patent US20150072968A1, “Treating Infections with Ceftolozane/Tazobactam in Subjects Having Impaired Renal Function” (Calixa Therapeutics, Inc., priority 2013, published 2015).
Where two headings read alike, the source gives them in different places.

What was measured:
[1] = clinical; conditions: human, in vivo
Description: CXA-201 plasma concentrations from 6 subjects with ESRD following a single dose without HD and a second dose with HD were used to develop a pPK model (Phoenix NLME, Pharsight).

[2] = cited from earlier work
[3] = Phase I PK studies in subjects with varying degrees of renal function (Example 11); type: in vivo, human
Description: Male and female subjects, aged 18 to 79 years, with varying degrees of renal function were enrolled in two, prospective, open-label, phase I studies of intravenous ceftolozane/tazobactam. A total of 36 subjects were enrolled into cohorts based on degree of renal function: normal (n=11), mild impairment (n=6), moderate impairment (n=7), severe impairment (n=6), and ESRD on HD (n=6). To ensure subjects with ESRD were receiving effective HD, a target adequacy of HD calculated from the pre- and post-blood urea nitrogen ratios (Kt/V) of at least 1.2 for a minimum of 3 months prior to enrollment was required. Renal impairment groups were classified according to the 2010 U.S.

[4] = Pharmacokinetics of ceftolozane/tazobactam in healthy volunteers; type: in vivo, human; conditions: single 1.5 g intravenous dose of CXA-201, healthy male adults
[5] = cited from earlier work; remark: listed apart in the source
[6] = Population pharmacokinetic analysis of 10 clinical studies (Example 7); type: in vivo, human
Description: Base model development. […] Intrinsic covariates analyzed included body weight, age, gender, ethnicity, and baseline calculated CrCL). The CrCL was estimated using the Cockcroft-Gault formula: […] […] Final population PK model: evaluation and performance. […] Smaller shrinkage ≦0.2 indicates good individual estimates.

[7] = Phase 1 single dose PK of 750 mg ceftolozane/tazobactam in severe renal impairment and ESRD on hemodialysis (Example 8); type: in vivo, human; conditions: for AUC(0-t) / Cmax / half-life / Tmax / AUC(0-inf) / clearance / Vd: both sexes, human, plasma; for Cmax: read-out: Cmax, Mean (CV %); for half-life: read-out: t1/2, Mean (CV %) (converted); for Tmax: read-out: tmax, Median (minimum, maximum); for AUC(0-inf): read-out: AUC∞, Mean (CV %); for clearance: read-out: CL, Mean (CV %) (converted); for Vd: read-out: Vss, Mean (CV %)
Experimental: This was a Phase 1, multicenter, prospective, open-label study of 750 mg ceftolozane/tazobactam (as CXA-201) administered IV in male and female adult subjects with severe renal impairment (estimated CLCR<30 mL/min) and subjects with end-stage renal disease (ESRD) on hemodialysis (HD). The primary objective of the study was to determine the PK profile of ceftolozane/tazobactam in subjects with severe renal impairment and subjects with ESRD on HD and to determine the effect of HD on the clearance of ceftolozane/tazobactam.
Subjects with severe renal impairment received a single IV 1-hour infusion of 750 mg ceftolozane/tazobactam on Day 1. […] Subjects in this cohort received an IV dose of 750 mg ceftolozane/tazobactam as a 1 hour infusion immediately after their first HD session on Day 1 (postdialysis, approximately 72 hours prior to the next HD session) and a second dose of ceftolozane/tazobactam approximately 2 hours before their second HD session on Day 4 of the study. Infusion of ceftolozane/tazobactam was completed approximately 1 hour before the start of HD.
Subjects in both cohorts had urine (if not anuric) and plasma samples collected for determination of levels of ceftolozane, tazobactam and the M1 metabolite of tazobactam; subjects in the ESRD on HD cohort also had dialysate fluid samples collected for PK assessment. Plasma, urine, and dialysate levels of ceftolozane, tazobactam, and its metabolite M1 collected over a prespecified interval were determined by LC/MS/MS assay.
All subjects underwent hemodialysis for 3 to 4 hours using a high-flux membrane (either 1.4, 1.8, or 1.9 m^2) on Days 1, 4, and 6 as scheduled. Average blood flow rate was 264 to 600 mL/min and average dialysis flow rate was either 600 or 800 mL/min for all subjects with ESRD.

[8] = moderate renal impairment, single 1,000 mg/500 mg dose
[9] = severe renal impairment, single 500 mg/250 mg dose
[10] = intravenous, 750 mg, ESRD on HD, second infusion Day 4, start of infusion to end of dialysis
[11] = iv, 750 mg, ESRD on HD, Day 1 IV infusion of 750 mg (non-hemodialysis phase)
[12] = iv, 750 mg, ESRD on HD, second IV infusion of 750 mg on Day 4 (during HD)
[13] = iv, 750 mg, severe renal impairment, single IV 1-hour infusion of 750 mg ceftolozane/tazobactam

SMILES: C[C@]1(Cn2ccnn2)[C@H](C(=O)O)N2C(=O)C[C@H]2S1(=O)=O [Tazobactam]
- Vd [1]: 11 L
- clearance [1]: 51.2 mL/min
- increase of CL by HD [1]: 6.6 fold
- increase of Vc by HD [1]: 1.5 fold
- protein binding [2]: ~30%
- extraction ratio ([3]; 1 h after the start of HD): 48%
- extraction ratio ([3]; 2 h after the start of HD): 54%
- median Cmax in plasma higher compared with normal renal function, dose normalized ([3]; ESRD during non-HD): 2.4 fold
- average extraction ratio during HD ([3]; ESRD on HD): 53%
- median RDHD (percent reduction in plasma concentration during HD) ([3]; ESRD on HD): 95%
- reduction in overall exposure based on the AUC0-∞ on and off HD ([3]; ESRD on HD): ~56%
- plasma concentration rebound peak following HD, of the original Cmax ([3]; ESRD, period following HD): ~6%
- extraction ratio ([3]; at end of HD): 55%
- clearance ([3]; both sexes, human, dialysate and plasma, intravenous, ESRD on HD, read-out: median dialysis clearance (CLD) (converted)): 73.2 mL/min
- half-life ([3]; both sexes, human, plasma, intravenous, ESRD on HD, read-out: t1/2 during the HD period (converted)): 0.91 h
- increase of median AUC0-∞ compared with normal renal function [3, 8]: 2.2 fold
- increase of median Cmax compared with normal renal function [3, 8]: 1.6 fold
- increase of median AUC0-∞ compared with dose-normalized exposure in normal renal function [3, 9]: 3.8 fold
- increase of median Cmax compared with dose-normalized exposure in normal renal function [3, 9]: 1.9 fold
- excreted in the urine as unchanged parent drug [4]: More than 80%
- terminal elimination half-life (t½β) ([5]; healthy volunteers): ~1 h
- Terminal elimination half-lives (t1/2) ([5]; patients with normal renal function): ~1 h
- excreted in the urine as the unchanged parent drug ([5]; remainder as inactive M1 metabolite): 80%
- between-subject variability (BSV) of CL ([6]; final population PK model): 50.2%
- between-subject variability (BSV) of Vc ([6]; final population PK model): 52.5%
- inter-compartment clearance (CL2) ([6]; final population PK model): 3.13 L/h
- volume of distribution in the peripheral compartment (Vp) ([6]; final population PK model): 4.29 L
- clearance ([6]; human, plasma, intravenous, final population PK model, read-out: CL, population estimate (converted)): 300 mL/min
- Vc, population estimate ([6]; subjects without infection): 14.2 L
- AUC(0-t) ([7]; intravenous, 750 mg, ESRD on HD, second infusion Day 4, approximately 6 hours from start of infusion to end of dialysis, read-out: AUClast, Mean (CV %)): 28800 ng·h/mL
- Cmax [7, 10]: 15700 ng/mL
- half-life [7, 10]: 0.98 h
- Tmax [7, 10]: 1 h
- AUC(0-t) ([7]; intravenous, 750 mg, subjects with ESRD, read-out: Exposure (AUC48h) After HD (Day 1), Median (Range)): 107000 ng·h/mL
- AUC(0-t) ([7]; intravenous, 750 mg, subjects with ESRD, read-out: Exposure (AUC48h) During HD (Day 3), Median (Range)): 37100 ng·h/mL
- AUC(0-inf) [7, 11]: 105000 ng·h/mL
- clearance [7, 11]: 50 mL/min
- Cmax [7, 11]: 21200 ng/mL
- Vd [7, 11]: 17 L
- half-life [7, 11]: 5.23 h
- AUC(0-t) ([7]; iv, 750 mg, ESRD on HD, Day 1 IV infusion of 750 mg (non-hemodialysis phase), through 48 hours, read-out: AUClast, Mean (CV %)): 103000 ng·h/mL
- Cmax [7, 12]: 15600 ng/mL
- half-life [7, 12]: 5.2 h
- AUC(0-t) ([7]; iv, 750 mg, ESRD on HD, second IV infusion of 750 mg on Day 4 (during HD), through 44 hours, read-out: AUClast, Mean (CV %)): 38400 ng·h/mL
- AUC(0-t) ([7]; iv, 750 mg, severe renal impairment, single IV 1-hour infusion of 750 mg ceftolozane/tazobactam, through 48 hours, read-out: AUClast, Mean (CV %)): 50300 ng·h/mL
- Cmax [7, 13]: 15200 ng/mL
- AUC(0-inf) [7, 13]: 52400 ng·h/mL
- clearance [7, 13]: 85 mL/min
- Vd [7, 13]: 16.5 L
- half-life [7, 13]: 2.6 h
- Tmax ([7]; ESRD on HD, second IV infusion of 750 mg on Day 4 (during HD)): 1 h
- removed by dialysis ([7]; subjects with ESRD on HD): ~56%
- AUC48h Ratio (Day 3:1), Median (Range) ([7]; subjects with ESRD, during HD vs after HD): 0.44 (0.26 − 0.53)
- Percent Removed, Median (Range) ([7]; subjects with ESRD, hemodialysis): 56 (47 − 74) Percent
